SMILES strings stand for the structures. Where a name gives a salt, the structure may show the parent alone.

This assay addresses HIS-TGF-βR1 T204D (Homo sapiens (Human), UniProt P36897, T204D). The experiment in a line: HTRF probe displacement assay with HIS-TGF-βR1 T204D. To be noted: read-out: TGFbr1 IC50; HTRF probe displacement, 1 nM HIS-TGF-βR1 T204D, 1 hour at room temperature.

Sequence of HIS-TGF-βR1 T204D (P36897 34-503 T204D): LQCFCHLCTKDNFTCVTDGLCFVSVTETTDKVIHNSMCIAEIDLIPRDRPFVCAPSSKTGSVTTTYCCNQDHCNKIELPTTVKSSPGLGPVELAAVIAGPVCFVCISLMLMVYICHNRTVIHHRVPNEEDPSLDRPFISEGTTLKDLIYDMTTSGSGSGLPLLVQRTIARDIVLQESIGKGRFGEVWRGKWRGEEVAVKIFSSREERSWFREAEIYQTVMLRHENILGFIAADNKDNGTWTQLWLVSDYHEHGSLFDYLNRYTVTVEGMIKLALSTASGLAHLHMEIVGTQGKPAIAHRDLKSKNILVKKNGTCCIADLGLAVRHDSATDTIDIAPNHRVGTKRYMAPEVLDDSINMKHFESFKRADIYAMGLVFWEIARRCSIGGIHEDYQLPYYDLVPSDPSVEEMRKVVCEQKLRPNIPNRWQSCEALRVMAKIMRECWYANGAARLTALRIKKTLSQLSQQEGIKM

For `CC(C)(O)Cn1cnc(-c2ccc(F)cc2)c1-c1ccc2ncc(C(N)=O)n2c1` [166′, 6-(4-(4-fluorophenyl)-1-(2-hydroxy-2-methylpropyl)-1H-imidazol-5-yl)imidazo[1,2-a]pyridine-3-carboxamide], the IC50 was 9.1 nM.
Consider `N#Cc1cnc2ccc(-c3c(-c4ccc(F)cc4)ncn3C3CC3)nn12` [7′, 6-(1-cyclopropyl-4-(4-fluorophenyl)-1H-imidazol-5-yl)imidazo[1,2-b]pyridazine-3-carbonitrile], for which the half-maximal inhibitory concentration (IC50) came to 2.4 nM.
Under `Fc1ccc(-c2ncn(C3(C(F)F)CC3)c2-c2ccc3nccn3n2)cc1` [Example 189′, 6-(1-(1-(difluoromethyl)cyclopropyl)-4-(4-fluorophenyl)-1H-imidazol-5-yl)imidazo[1,2-b]pyridazine] stands 1.6 nM; under `N#Cc1cnc2ccc(-c3c(-c4ccc(F)cc4)ncn3C3(C#N)CC3)nn12` [Example 267′, 6-(1-(1-cyanocyclopropyl)-4-(4-fluorophenyl)-1H-imidazol-5-yl)imidazo[1,2-b]pyridazine-3-carbonitrile, TFA], 0.3 nM.
Take `CC(F)(F)Cn1cnc(-c2ccc(F)c(Cl)c2)c1-c1ccc2ncc(C(N)=O)n2n1` [151′, 6-(4-(3-chloro-4-fluorophenyl)-1-(2,2-difluoropropyl)-1H-imidazol-5-yl)imidazo[1,2-b]pyridazine-3-carboxamide]: the IC50 came to 0.6 nM.
With `CC(=O)Nc1nc(-c2ccc(F)cc2)c(-c2ccc3nccn3c2)[nH]1` [Example 295′, N-(4-(4-fluorophenyl)-5-(imidazo[1,2-a]pyridin-6-yl)-1H-imidazol-2-yl)acetamide], the half-inhibitory concentration (IC50) stood at 55 nM.
Take `N#Cc1cnc2ccc(-c3c(-c4ccc(F)c(Cl)c4)ncn3CCF)nn12` [34′, 6-(4-(3-chloro-4-fluorophenyl)-1-(2-fluoroethyl)-1H-imidazol-5-yl)imidazo[1,2-b]pyridazine-3-carbonitrile]: the IC50 was found to be 0.9 nM.
The result for `N#Cc1cnc2ccc(-c3c(-c4ccc(F)cc4)ncn3C[C@H](O)CO)cn12` [92′, (S)-6-(1-(2,3-dihydroxypropyl)-4-(4-fluorophenyl)-1H-imidazol-5-yl)imidazo[1,2-a]pyridine-3-carbonitrile] reads 266 nM; that for `NC(=O)c1cnc2ccc(-c3c(-c4ccc(F)cc4F)ncn3CC(F)F)cn12` [233′, 6-(1-(2,2-difluoroethyl)-4-(2,4-difluorophenyl)-1H-imidazol-5-yl)imidazo[1,2-a]pyridine-3-carboxamide], 1 nM; that for `N#Cc1cnc2ccc(-c3c(-c4ccc(F)c(Cl)c4)ncn3CCO)cn12` [100′, 6-(4-(3-chloro-4-fluorophenyl)-1-(2-hydroxyethyl)-1H-imidazol-5-yl)imidazo[1,2-a]pyridine-3-carbonitrile], 11.6 nM.
The result for `N#Cc1cnc2ccc(-c3c(-c4ccc(F)cc4)ncn3C(CO)CO)cn12` [85′, 6-(1-(1,3-dihydroxypropan-2-yl)-4-(4-fluorophenyl)-1H-imidazol-5-yl)imidazo[1,2-a]pyridine-3-carbonitrile] reads 144 nM; that for `CCn1cnc(-c2ccc(F)c(Cl)c2)c1-c1ccc2ncc(C#N)n2c1` [94′, 6-(4-(3-chloro-4-fluorophenyl)-1-ethyl-1H-imidazol-5-yl)imidazo[1,2-a]pyridine-3-carbonitrile], 13.1 nM.
With `N#Cc1cnc2ccc(-c3c(-c4ccc(F)c(Cl)c4)ncn3CC(F)F)nn12` [33′, 6-(4-(3-chloro-4-fluorophenyl)-1-(2,2-difluoroethyl)-1H-imidazol-5-yl)imidazo[1,2-b]pyridazine-3-carbonitrile], the IC50 was determined as 1 nM.
Under `N#Cc1cnc2ccc(-c3c(-c4ccc(F)c(Cl)c4)ncn3CCCF)cn12` [101′, 6-(4-(3-chloro-4-fluorophenyl)-1-(3-fluoropropyl)-1H-imidazol-5-yl)imidazo[1,2-a]pyridine-3-carbonitrile] stands 23.2 nM; under `OCCc1cnc2ccc(-c3c(-c4ccc(F)cc4)ncn3CC(F)F)nn12` [Example 217′, 2-(6-(1-(2,2-difluoroethyl)-4-(4-fluorophenyl)-1H-imidazol-5-yl)imidazo[1,2-b]pyridazin-3-yl)ethanol], 3.2 nM; under `CCCn1cnc(-c2ccc(F)cc2)c1-c1ccc2ncc(C#N)n2c1` [87′, 6-(4-(4-fluorophenyl)-1-propyl-1H-imidazol-5-yl)imidazo[1,2-a]pyridine-3-carbonitrile], 40.3 nM.
Consider `NC(=O)c1cnc2ccc(-c3c(-c4ccc(F)cc4)ncn3C3CNC3)nn12` [195B′, 6-(1-(azetidin-3-yl)-4-(4-fluorophenyl)-1H-imidazol-5-yl)imidazo[1,2-b]pyridazine-3-carboxamide], for which the IC50 amounted to 45.4 nM.
Regarding `Cc1nc(-c2ccc(F)cc2)c(-c2ccc3[nH]ncc3c2)n1CC(F)F` [Example 273′, 5-(1-(2,2-difluoroethyl)-4-(4-fluorophenyl)-2-methyl-1H-imidazol-5-yl)-1H-indazole], the IC50 worked out at 29.6 nM.
`CC(C)(F)Cn1cnc(-c2ccc(F)c(Cl)c2)c1-c1ccc2ncc(C#N)n2n1` [57′, 6-(4-(3-chloro-4-fluorophenyl)-1-(2-fluoro-2-methylpropyl)-1H-imidazol-5-yl)imidazo[1,2-b]pyridazine-3-carbonitrile]: the IC50 was determined as 1.5 nM.
Under `N#Cc1cnc2ccc(-c3c(-c4ccc(F)cc4)ncn3CCCO)cn12` [75′, 6-(4-(4-fluorophenyl)-1-(3-hydroxypropyl)-1H-imidazol-5-yl)imidazo[1,2-a]pyridine-3-carbonitrile] stands 200 nM.
The result for `N#Cc1cnc2ccc(-c3c(-c4ccc(F)cc4)nc(N)n3CC(F)F)cn12` [Example 298′, 6-(2-amino-1-(2,2-difluoroethyl)-4-(4-fluorophenyl)-1H-imidazol-5-yl)imidazo[1,2-a]pyridine-3-carbonitrile] reads 44.8 nM; that for `CCn1cnc(-c2ccc(F)cc2)c1-c1ccc2ncc(C(N)=O)n2c1` [160′, 6-(1-ethyl-4-(4-fluorophenyl)-1H-imidazol-5-yl)imidazo[1,2-a]pyridine-3-carboxamide], 0.8 nM.
In the case of `N#Cc1cnc2ccc(-c3c(-c4cc(Cl)ccc4F)ncn3CC(F)F)cn12` [228′, 6-(4-(5-chloro-2-fluorophenyl)-1-(2,2-difluoroethyl)-1H-imidazol-5-yl)imidazo[1,2-a]pyridine-3-carbonitrile], the IC50 amounted to 3.7 nM.
The result for `N#Cc1cnc2ccc(-c3c(-c4cccc(C(N)=O)c4)ncn3CC(F)F)nn12` [255′, 3-(5-(3-cyanoimidazo[1,2-b]pyridazin-6-yl)-1-(2,2-difluoroethyl)-1H-imidazol-4-yl)benzamide] reads 867 nM.
`N#Cc1cnc2ccc(-c3c(-c4ccc(F)cc4)ncn3CC3CCCO3)nn12` (stereo not shown) [31′, 6-(4-(4-fluorophenyl)-1-((tetrahydrofuran-2-yl)methyl)-1H-imidazol-5-yl)imidazo[1,2-b]pyridazine-3-carbonitrile]: the IC50 was 1.9 nM.
For `Cn1cnc(-c2ccc(F)c(F)c2)c1-c1ccc2cn[nH]c2c1` [Compound 65, 6-(4-(3,4-Difluorophenyl)-1-methyl-1H-imidazol-5-yl)-1H-indazole], the IC50 worked out at 63.2 nM.
Regarding `N#Cc1cnc2ccc(-c3c(-c4ccc(F)c(Cl)c4)ncn3C3CC(F)(F)C3)nn12` [53′, 6-(4-(3-chloro-4-fluorophenyl)-1-(3,3-difluorocyclobutyl)-1H-imidazol-5-yl)imidazo[1,2-b]pyridazine-3-carbonitrile], the IC50 amounted to 2.1 nM.
Under `CC(O)CCn1cnc(-c2ccc(F)cc2)c1-c1ccc2ncc(C(N)=O)n2c1` (stereo not shown) [156′, 6-(4-(4-fluorophenyl)-1-(3-hydroxybutyl)-1H-imidazol-5-yl)imidazo[1,2-a]pyridine-3-carboxamide] stands 4.3 nM.
The result for `N#Cc1cnc2ccc(-c3c(-c4ccc(F)c(Cl)c4)ncn3CCCCl)nn12` [44′, 6-(4-(3-chloro-4-fluorophenyl)-1-(3-chloropropyl)-1H-imidazol-5-yl)imidazo[1,2-b]pyridazine-3-carbonitrile] reads 1.2 nM; that for `N#Cc1ccc(-c2ncn(CC(F)F)c2-c2ccc3ncc(C#N)n3n2)cc1` [258′, 6-(4-(4-cyanophenyl)-1-(2,2-difluoroethyl)-1H-imidazol-5-yl)imidazo[1,2-b]pyridazine-3-carbonitrile], 356 nM.
Under `Fc1ccc(-c2ncn(CC(F)F)c2-c2ccc3nncn3c2)cc1` [Example 281′, 6-(1-(2,2-difluoroethyl)-4-(4-fluorophenyl)-1H-imidazol-5-yl)-[1,2,4]triazolo[4,3-a]pyridine] stands 522 nM; under `CCCn1cnc(-c2ccc(F)cc2)c1-c1ccc2ncc(C(N)=O)n2c1` [177′, 6-(4-(4-fluorophenyl)-1-propyl-1H-imidazol-5-yl)imidazo[1,2-b]pyridine-3-carboxamide], 1.1 nM; under `CC(C1CC1)n1cnc(-c2ccc(F)cc2)c1-c1ccc2ncc(C(N)=O)n2c1` (stereo not shown) [167′, 6-(1-(1-cyclopropylethyl)-4-(4-fluorophenyl)-1H-imidazol-5-yl)imidazo[1,2-a]pyridine-3-carboxamide], 0.6 nM.
Regarding `CCC(O)Cn1cnc(-c2ccc(F)cc2)c1-c1ccc2ncc(C#N)n2c1` (stereo not shown) [70′, 6-(4-(4-fluorophenyl)-1-(2-hydroxybutyl)-1H-imidazol-5-yl)imidazo[1,2-a]pyridine-3-carbonitrile], the IC50 turned out to be 123 nM.
In the case of `NC(=O)c1cnc2ccc(-c3c(-c4ccc(F)cc4)ncn3C3CC3)nn12` [109′, 6-(1-cyclopropyl-4-(4-fluorophenyl)-1H-imidazol-5-yl)imidazo[1,2-b]pyridazine-3-carboxamide], the IC50 is 2.5 nM.
Under `N#Cc1cnc2ccc(-c3c(-c4ccc(F)c(Cl)c4)ncn3C3CC(F)C3)nn12` (stereo not shown) [Example 104′, 6-(4-(3-chloro-4-fluorophenyl)-1-(3-fluorocyclobutyl)-1H-imidazol-5-yl)imidazo[1,2-b]pyridazine-3-carbonitrile] stands 0.5 nM.
As for `CC[C@@H](CF)n1cnc(-c2ccc(F)cc2)c1-c1ccc2ncc(C(N)=O)n2n1` [128′, (S)-6-(1-(1-fluorobutan-2-yl)-4-(4-fluorophenyl)-1H-imidazol-5-yl)imidazo[1,2-b]pyridazine-3-carboxamide], the IC50 worked out at 1.5 nM.

Source of the values: patent publication US9884868B2, “TGF-beta inhibitors” (Rigel Pharmaceuticals, Inc., priority 2015, dated 2018).
